# Assay results published in PubChem BioAssay (NCI).
# Several values for one entry are separate records, joined by “and”; a condition that tells them apart may be missing. Equal entries are not always repeated.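 These data come from cells grown in 96-well plates and exposed to compound for 48 hours at five concentrations. GI50 marks 50% less growth. TGI marks complete inhibition of growth.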
# Tests used:
# Test in all cases: NCI anticancer screen, dose series, 48 h
# [1] = test system: MALME-3M melanoma
# [2] = test system: CAKI-1 renal
# [3] = test system: MDA-MB-231 breast
# [4] = test system: K-562 leukemia
# [5] = test system: SF-539 CNS
# [6] = test system: SR leukemia
# [7] = test system: UACC-257 melanoma
# [8] = test system: MDA-MB-435
# [9] = test system: OVCAR-5 ovarian
# [10] = test system: HS 578T breast
SMILES,GI50 [1],TGI [1],GI50 [2],TGI [2],GI50 [3],TGI [3],GI50 [4],TGI [4],GI50 [5],TGI [5],GI50 [6],TGI [6],GI50 [7],TGI [7],GI50 [8],TGI [8],GI50 [9],TGI [9],GI50 [10],TGI [10]
C(=Nc1ccccc1)C1CCCC[N-]1.C(=Nc1ccccc1)C1CCCC[N-]1.[Cu+2].[O-][Cl+3]([O-])([O-])O (stereo not given),14 µM,33.9 µM,3.96 µM,16.6 µM,9.75 µM,28.1 µM,0.745 µM,14.4 µM,17.7 µM,42.3 µM,1.64 µM,6.12 µM,> 37.7 µM,> 55.2 µM,1.57 µM,4.31 µM,14.8 µM,31.6 µM,30.3 µM,> 89.5 µM
CC(C)[C@](O)(c1ccc2cc(OC(F)F)c(OC(F)F)cc2c1)c1cn[nH]n1,18.4 µM and 21 µM,42.6 µM and 44.7 µM,13 µM and 10.2 µM,37 µM and 34.5 µM,20.5 µM and 12.3 µM,38.9 µM and 28.6 µM,20.1 µM and 24.8 µM,66.3 µM and 80.7 µM,16.5 µM and 16.2 µM,32.4 µM and 32.3 µM,24.7 µM and 12.1 µM,56.7 µM and 44.9 µM,21.5 µM and 21.8 µM,47.7 µM and 46.1 µM,16 µM and 15.4 µM,32.6 µM and 33 µM,21.7 µM and 22.9 µM,65.1 µM and 64.9 µM,22.1 µM and 15.4 µM,82.4 µM and 51.2 µM
CCOc1ccc2nc(NC(=O)C(=O)C(C(=O)c3ccccc3-c3ccccc3)C3OC(=O)c4ccccc43)sc2c1 (stereo not given),,34.8 µM,,53.2 µM,,70.8 µM,,> 67 µM,,36.7 µM,,43 µM,,> 96 µM,,65.1 µM,,> 100 µM,,> 100 µM
OCCOc1ccc(-c2cc(-c3ccccn3)nc(-c3ccccn3)c2)cc1,,17.5 µM,,17.7 µM,,> 40.2 µM,,11.4 µM,,2.26 µM,,11.7 µM,,12.9 µM,,> 100 µM,,12.1 µM,,> 100 µM
CC/C(Cc1ccccc1)=C(\c1ccc(OCCN2CCCCCC2)cc1)c1ccc(OC(=O)NCc2ccccc2)cc1,0.951 µM,1.94 µM,4.52 µM,10.5 µM,2.59 µM,9.02 µM,0.898 µM,2.33 µM,2.43 µM,8.84 µM,0.821 µM,2.2 µM,3.8 µM,11.3 µM,1.54 µM,5.08 µM,6.2 µM,12.8 µM,2.66 µM,11.8 µM
CC1=NN(C(=O)c2ccccc2O)C(=O)/C1=C/c1ccc([N+](=O)[O-])cc1,0.895 µM,> 100 µM,0.549 µM,> 30.8 µM,,> 100 µM,0.216 µM,,0.476 µM,2.57 µM and 2.52 µM,5.04 µM,,2.34 µM,> 100 µM,,> 100 µM,2.62 µM,> 100 µM,,> 100 µM
CNC(=O)c1cc(COc2nnc(Nc3ccc(Cl)cc3)c3ccoc23)ccn1,4.11 µM and > 10 µM,17.2 µM and > 10 µM,3.46 µM and > 10 µM,19.7 µM and > 10 µM,3.43 µM and > 10 µM,13.8 µM and > 10 µM,19.6 µM and > 10 µM,72 µM and > 10 µM,1.53 µM and 1.89 µM,5.86 µM and > 10 µM,20.1 µM and > 10 µM,83.1 µM and > 10 µM,6.3 µM and > 10 µM,35.6 µM and > 10 µM,10.4 µM and > 10 µM,43.9 µM and > 10 µM,12.3 µM and > 10 µM,38.9 µM and > 10 µM,2.41 µM and 4.62 µM,10.9 µM and > 10 µM
Cc1c2cnccc2c(C)c2c1c1cc(C3OCCCO3)ccc1n2C,0.29 µM,1.12 µM,0.314 µM,3.45 µM,0.322 µM,1.8 µM,0.418 µM,2.69 µM,0.272 µM,1.32 µM,0.0686 µM,1.43 µM,0.343 µM,1.8 µM,0.411 µM,1.55 µM,0.436 µM,3.7 µM,0.416 µM,2.83 µM
CO[C@H](C(=O)[C@@H](O)[C@@H](C)O)[C@@H]1Cc2cc3cc(O[C@H]4C[C@@H](O[C@H]5C[C@@H](O)[C@H](O)C(C)O5)[C@H](O)C(C)O4)c(C)c(O)c3c(O)c2C(=O)[C@H]1O[C@H]1C[C@@H](O[C@H]2C[C@@H](O[C@H]3C[C@@H](OC)[C@H](O)C(C)O3)[C@@H](O)C(C)O2)C(O)(O)C(C)O1 (stereo not given in full),0.0532 µM,2.03 µM,2.89 µM,> 17.3 µM,0.794 µM,24.5 µM,0.19 µM,> 25 µM,0.0938 µM,1.68 µM,0.0932 µM,> 25 µM,0.0371 µM,0.511 µM,0.171 µM,3.53 µM,0.376 µM,> 25 µM,0.118 µM,> 7.66 µM
CN1CCN(c2ccc(C(=O)Nc3n[nH]c4ccc(Cc5cc(F)cc(F)c5)cc34)c(NC3CCOCC3)c2)CC1,1.5 µM,3.01 µM,8.53 µM and 1.56 µM,> 10 µM and 3.07 µM,1.89 µM and 1.5 µM,5.51 µM and 3.06 µM,1.78 µM and 1.69 µM,4.83 µM and 3.61 µM,2.66 µM and 1.56 µM,> 10 µM and 2.92 µM,0.0734 µM and 0.0312 µM,2.15 µM and 1.69 µM,3.72 µM and 1.42 µM,> 10 µM and 2.82 µM,1.39 µM and 1.49 µM,2.86 µM and 3.13 µM,1.85 µM and 1.31 µM,> 10 µM and 2.73 µM,1.23 µM and 1.21 µM,4.37 µM and 3.22 µM
